Experimental data: patent US8702684B2, “Therapeutic hybrid implantable devices” (University of Miami, priority 2007, dated 2014)
Entries after “also recorded” stand apart in the source; their conditions may differ.

What was measured:
Assay type in all cases: in vivo, rat
[1] = tested on: syngeneic islet grafts in chemically-diabetic Lewis rats; experiment: Effect of systemic immunosuppression given from day of syngeneic islet transplantation on engraftment and graft function in hybrid devices; details: for animals achieving normoglycemia at later times after withdrawal of immunosuppression: fraction of animals in group, single-drug treatment; for graft function while under treatment: syngeneic islets 3,000 IEQ, treatment from day of transplantation for 40 days, controls normoglycemic long-term
Method: To assess the impact of conventional systemic immunosuppression on islet engraftment and function in prevascularized hybrid devices, we carried out syngeneic islet transplantation in chemically-diabetic Lewis rats that were treated with either rapamycin or tacrolimus (alone or in combination) as described in Example 3, starting from the day of islet transplantation, for 40 days. Control animals received no treatment.

[2] = tested on: already-engrafted syngeneic islet grafts in rats; experiment: Effect of systemic immunosuppression on already-engrafted functional syngeneic islet grafts; details: for animals returning to normoglycemia / recovering function after drug withdrawal: after 40 days treatment
[3] = tested on: islet allografts in diabetic Lewis rats; experiment: Allogeneic islet graft survival in hybrid devices with local immunosuppression via micro-osmotic pump after weaning of systemic immunosuppression; details: local delivery by micro-osmotic pump 0.25 microL/h, dexamethasone phosphate 20 mg/L, loteprednol etabonate 0.2, 0.5, 10 mg/L, S1P receptor agonist 50 mg/L, controls rejected within 2 weeks of stopping systemic immunosuppression
Excerpt: Forty days before islet transplantation, the rats were implanted with a hybrid device of the invention with a plunger-containing device in the subcutaneous space as described in Example 3. Allogeneic islets (7,000 IE isolated from Wistar Furth rats) were then deposited into the neovascularized spaces of the hybrid devices, and after the transplantation, the animals' glucose levels were monitored daily as described in Examples 1 and 3. Post-transplantation, all animals received systemic immunosuppression treatment consisting of a single-dose induction treatment with T-cell depleting anti-lymphocyte serum (ALS) given intravenously on day −3. Starting on the day of islet transplantation, systemic maintenance immunosuppression with mycophenolic acid (MPA, 20 mg/kg) was given daily orally for at least three weeks. […] After at least two weeks of treatment, systemic immunosuppression was tapered and discontinued, while the local immunosuppression was maintained. For example, a typical weaning protocol of systemic treatment consisted of 25% reduction of MPA for two consecutive days over an 8-day period. FIG. 25 illustrates an experimental protocol of transient systemic immunosuppression combined with local extended immunotherapy.
Starting on the day of islet transplantation, animals also received local immunosuppression delivered using a micro-osmotic pump such as the Alzet® 100 microL volume, 2-week continuous infusion, 0.25 microL/h delivery rate model 1002 pump (Durect Corp., Cupertino, Calif.). Both the device and the pump were implanted in the dorsal region of the rodents, and they were connected via a PE tubing. Animals were divided into controls receiving either local saline or no treatment and treatment groups receiving various immunosuppressive agents such as, for example, dexamethasone phosphate (20 mg/L), loteprednol etabonate (0.2, 0.5, and 10 mg/L), or a sphingosine-1-phosphate (S1P) receptor agonist (50 mg/L) from the micro-osmotic pump.

Row | Compound | animals achieving normoglycemia at later times after withdrawal of immunosuppression [1] | graft function while under treatment [1] | animals returning to normoglycemia / recovering function after drug withdrawal ([2]; already-engrafted graft) | animals displaying dysfunction while under treatment ([2]; fraction of animals, 40 days treatment of already-engrafted graft) | allograft survival compared to control animals [3] | allograft survival compared to control animals ([3]; listed as dexametasone phosphate) | graft function under systemic immunosuppression administered for 40 days ([2]; already-engrafted graft, >=40 days post implantation)
1 | CO[C@H]1C[C@@H]2CC[C@@H](C)[C@@](O)(O2)C(=O)C(=O)N2CCCC[C@H]2C(=O)O[C@H]([C@H](C)C[C@@H]2CC[C@@H](O)[C@H](OC)C2)CC(=O)[C@H](C)/C=C(\C)[C@@H](O)[C@@H](OC)C(=O)[C@H](C)C[C@H](C)/C=C/C=C/C=C/1C [rapamycin, sirolimus] | ¼ | only partial function or primary non-function; also recorded: only partial or primary non-function | returned to normoglycemia | ⅓ | – | – | –
2 | C[C@@H]1C[C@H]2[C@@H]3CCC4=CC(=O)C=C[C@]4(C)[C@@]3(F)[C@@H](O)C[C@]2(C)[C@@]1(O)C(=O)COP(=O)(O)O [dexamethasone phosphate] | – | – | – | – | clear extension of allograft survival | sizable extension of allograft survival | –
3 | C=CC[C@@H]1/C=C(\C)C[C@H](C)C[C@H](OC)[C@H]2O[C@@](O)(C(=O)C(=O)N3CCCC[C@H]3C(=O)O[C@H](/C(C)=C/[C@@H]3CC[C@@H](O)[C@H](OC)C3)[C@H](C)[C@@H](O)CC1=O)[C@H](C)C[C@@H]2OC [tacrolimus] | ¼ | only partial function or primary non-function; also recorded: only partial or primary non-function | ⅓ | – | – | – | impaired graft function
4 | CCOC(=O)O[C@]1(C(=O)OCCl)CC[C@H]2[C@@H]3CCC4=CC(=O)C=C[C@]4(C)[C@H]3[C@@H](O)C[C@@]21C [loteprednol etabonate] | – | – | – | – | clear extension of allograft survival; also recorded: sizable extension of allograft survival | – | –
